Columns and labels:
Assay type in all cases: cell-based
Conditions in all cases: SRB staining
[1] = system: human skin cancer cell (A431, wild-type EGFR); test: Proliferation inhibition (SRB) on human skin cancer cell A431
From the text: (§1) The pharmacodynamic action of the compound of the present invention in terms of inhibiting the proliferation of cancer cells may be assayed by conventional methods. […] Inhibition ratio (%)=[(blank control OD−inhibitor OD)/blank control OD]×100%
(§2) Blank control OD: the OD value of the well of normally growed cells without the action of a drug.
(§3) Inhibitor OD: the OD value of the well of cells with the action of the added compounds to be screened.
(§4) The median inhibitory concentration (IC50) value is obtained by the software GraphPad Prism 5.0 by the 4-parameter logistic curve fit calculation. Each experiment is repeated three times, and the average IC50 value for three experiments is used as the final index for the inhibitory ability.
(§5) Cells in the logarithmic phase were inoculated to 96-well culture plates (cell density: 5000/well, cell suspension: 180 μl/well), and cultured at 37° C. under 5% CO2 for 24 hours. After the culturing, the cells adhered to the well walls. Each of compounds was dissolved in DMSO in advance to formulate a […] stock solution. Upon testing, the stock solution was diluted with complete medium to 10 times the target concentration in another 96-cell plate. And then the compound was added at 20 μl/cell in the 96-well plate in which the cells were inoculated, i.e. the target concentration could be reached. The well for each concentration was triplicated, and the blank control was established. Cells continued to be cultured at 37° C. under 5% CO2 for 72 hours. After the termination of culturing, 50 μl pre-cooled (4° C.) 50% trichloroacetic acid, i.e., TCA was added to each of wells (final concentration=10%), and was placed at 4° C. for 1 hour to fix the cells. The resulting matter was washed with purified water for at least 5 times, and dried naturally in air or at 60° C. in an oven. 4 mg/ml Sulforhodamine B (SRB) solution prepared by 1% glacial acetic acid/purified water was added at 100 μl/well to each well so as to stain for 1 hour at room temperature. The supernatant was discarded. The residue was washed with 1% acetic acid for at least 5 times to remove the non-specifically binding, and dried for use. To each well was added 150 μl of 10 mM Tris-HCl solution for dissolving the contents therein.

[2] = system: human lung cancer cell (H1975, EGFR L858R/T790M resistant mutation); test: Proliferation inhibition (SRB) on human lung cancer cell H1975
From the text: as §1, §2, §3, §4, §5

[3] = system: human lung cancer cell (HCC827, EGFR Exon 19 deletion activating mutation); test: Proliferation inhibition (SRB) on human lung cancer cell HCC827
From the text: as §1, §2, §3, §4, §5

| IC50 ([1]; Homo sapiens, A-431, 72 h) [nM] | IC50 ([2]; Homo sapiens, NCI-H1975, 72 h) [nM] | IC50 ([3]; Homo sapiens, HCC827, 72 h) [nM] | IC50 ([1]; 72 hours, methanesulfonate) [nM] | IC50 ([2]; 72 hours, methanesulfonate) [nM] | IC50 ([3]; 72 hours, methanesulfonate) [nM] | SMILES |
| --- | --- | --- | --- | --- | --- | --- |
| 697 | 12.6 | 1.17 | – | – | – | C=CC(=O)Nc1cc(Nc2ncc(Cl)c(-c3cn(C)c4ccc(F)cc34)n2)c(OC(C)C)nc1N(C)CCN(C)C [Example 9 compound, N-{2-{[2-(dimethylamino)ethyl](methyl)amino}-6-isopropyloxy-5-{5-chloro-[4-(1-methyl-5-fluoro-1H-indol-3-yl)pyrimidin-2-yl]amino}pyridin-3-yl}acrylamide] |
| 2760 | 38 | 33.3 | – | – | – | C=CC(=O)Nc1cc(Nc2ncc(Cl)c(-c3cnc(OC)nc3)n2)c(OC(C)C)nc1N(C)CCN(C)C [Example 22 compound, N-{2-{[2-(dimethylamino)ethyl](methyl)amino}-6-isopropyloxy-5-{[5-chloro-2′-methoxy-(4,5′-bipyrimidine)-2-yl]amino}pyridin-3-yl}acrylamide] |
| 209 | 2.56 | 2.62 | – | – | – | C=CC(=O)Nc1cc(Nc2ncc(Cl)c(-c3cn(C)c4ncccc34)n2)c(OC(C)C)nc1N(C)CCN(C)C [Example 19 compound, N-{2-{[2-(dimethylamino)ethyl](methyl)amino}-6-isopropyloxy-5-{[5-chloro-4-(1-methyl-1H-pyrrolo[2,3-b]pyridin-3-yl)pyrimidin-2-yl]amino}pyridin-3-yl}acrylamide] |
| – | – | – | 341 | 5.07 | 2.24 | C=CC(=O)Nc1cc(Nc2nccc(-c3cn(C)c4cc(F)c(F)cc34)n2)c(OC(C)C)nc1N(C)CCN(C)C [Example 18 compound, N-{2-{[2-(dimethylamino)ethyl](methyl)amino}-6-isopropyloxy-5-{[4-(1-methyl-5,6-difluoro-1H-indol-3-yl)pyrimidin-2-yl]amino}pyridin-3-yl}acrylamide methanesulfonate] |
| 307 | 16.7 | 1.4 | – | – | – | C=CC(=O)Nc1cc(Nc2ncc(Cl)c(-c3cn(C)c4cc(F)ccc34)n2)c(OC(C)C)nc1N(C)CCN(C)C [Example 7 compound, N-{2-{[2-(dimethylamino)ethyl](methyl)amino}-6-isopropyloxy-5-{5-chloro-[4-(1-methyl-6-fluoro-1H-indol-3-yl)pyrimidin-2-yl]amino}pyridin-3-yl}acrylamide] |

Reference: USRE48687E1, “Pyridinylaminopyrimidine derivatives, preparation process and use thereof” (Shanghai Allist Pharmaceuticals Co., Ltd., priority 2014, dated 2021)
